Measured values taken from patent US8653071B2, “α4β2 neuronal nicotinic acetylcholine receptor ligands” (Suven Life Sciences Limited, priority 2009, dated 2014).

How the values were obtained:
[1] = in vivo; settings: male, Wistar, rat, po, 15 mg/kg
Procedure: Rodent Brain Penetration Study
Three animals were housed in each cage. Animals were given water and food ad libitum throughout the experiment, and maintained on a 12 hours light/dark cycle.
NCE compound was dissolved in water and administered orally. At Tmax (0.5, 1.0 and 2.0) animals were sacrificed to collect the plasma and brain tissue and were homogenized. Plasma and Brain was stored frozen at −20° C. until analysis. The concentrations of the NCE compound in plasma and Brain were determined using LC-MS/MS method.
The NCE compounds were quantified in plasma and brain homogenate by validated LC-MS/MS method using solid phase extraction technique. NCE compounds were quantified in the calibration range of 1-500 ng/mL in plasma and brain homogenate. Study samples were analyzed using calibration samples in the batch and quality control samples spread across the batch. Extents of brain-blood ratio were calculated (Cb/Cp).

[2] = target: Nicotinic Acetylcholine α4β2 Receptor (UniProt P09483+P12390); assay: Binding assay for human or rat nicotinic acetylcholine α4β2 receptor ([3H]Cytisine displacement); settings: [3H]Cytisine 2.5 nM; rat brain frontal cortex or recombinant human receptor in CHO cells (not specified which); read-out: Ki
[3] = system: Male Wister rats; assay: Reversal of formalin induced nociception; assay type: in vivo; settings: p.o.; rat
Procedure: Reversal of Formalin Induced Nociception
The anti-nociceptive properties of compounds of this invention were evaluated using a model of pain: the Formalin Induced Nociception model. Male Wister rats (230-280 grams) obtained from N. I. N. (National Institute of Nutrition, Hyderabad, India) was used as experimental animals.
Rats were habituated for 20 minutes in the arena before the experiment was started. Duration of licks, bites and flinches were noted from 0-10 minutes and 20-35 minutes after administration of formalin, subplantar into the right hind paw at concentrations of 5% v/v. 50 μL of water for injection was injected into the right hind paw of the rats of the sham group. Compounds of this invention were administered orally prior to formalin administration.

**Q.** For `CNCC1CC2CC2N1c1cccnc1.Cl` (stereo not drawn) [Example 4, N-[2-(Pyridin-3-yl)-2-azabicyclo[3.1.0]hex-3-ylmethyl]methylamine hydrochloride], which Kp [1] is on record?
**A.** The Kp was 11.7 ± 2.66.

**Q.** What about the Ki [2] of the same compound?
**A.** Its Ki is 0.0594 µM.

**Q.** And the “Dose (reversal of formalin induced nociception)” value [3]?
**A.** Its value is “≦10 mg/kg, p.o”.
